Data: patent US9073855B2, “BCL-2 selective apoptosis-inducing agents for the treatment of cancer and immune diseases” (AbbVie Inc., priority 2008, dated 2015)

Columns and labels:
[1] = molecular target: GST-Bcl-2 (Homo sapiens, UniProt P10415); test: TR-FRET binding assay, GST-Bcl-2 with F-Bak peptide probe; details: TR-FRET Binding Affinity, GST-Bcl-2, F-Bak peptide probe
Method in brief: (§1)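 Ki was derived with Wang's equation for competitive binding of two ligands. The read-out was time-resolved fluorescence after a 3 h room-temperature incubation, using a Tb-labelled antibody donor and the F-Bak peptide acceptor (excitation 340/35 nm). Test compounds entered as DMSO serial dilutions starting at 50 μM, which was the 2× concentration.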

[2] = tested on: FL5.12/Bcl-2 cells; test: FL5.12/Bcl-2 cell viability assay under IL-3 withdrawal (CellTitre Glo); assay type: cell-based, murine; details: Mus musculus, IL-3 withdrawn 48 hrs, then 24 hrs with compound
Method in brief: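 Cells (1×10^6/ml) are washed, resuspended in medium lacking WEHI-3B conditioned medium as IL-3 source, and held 48 hrs. Compounds are then added at a range of concentrations for 24 hrs, after which CellTitre Glo reports viability.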

[3] = molecular target: GST-Bcl-XL (Homo sapiens, UniProt Q07817); test: TR-FRET binding assay, GST-Bcl-XL with F-Bak peptide probe; details: TR-FRET Binding Affinity, GST-Bcl-XL, F-Bak peptide probe
Sequence of GST-Bcl-XL (Q07817 whole entry): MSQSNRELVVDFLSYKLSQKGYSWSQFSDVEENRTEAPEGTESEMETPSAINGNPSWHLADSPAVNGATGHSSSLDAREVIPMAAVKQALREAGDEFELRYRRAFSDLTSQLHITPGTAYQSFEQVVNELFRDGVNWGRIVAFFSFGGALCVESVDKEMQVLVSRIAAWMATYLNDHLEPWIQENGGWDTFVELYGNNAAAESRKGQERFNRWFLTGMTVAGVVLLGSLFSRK
Method in brief: as §1

Sequence of GST-Bcl-2 (P10415 whole entry): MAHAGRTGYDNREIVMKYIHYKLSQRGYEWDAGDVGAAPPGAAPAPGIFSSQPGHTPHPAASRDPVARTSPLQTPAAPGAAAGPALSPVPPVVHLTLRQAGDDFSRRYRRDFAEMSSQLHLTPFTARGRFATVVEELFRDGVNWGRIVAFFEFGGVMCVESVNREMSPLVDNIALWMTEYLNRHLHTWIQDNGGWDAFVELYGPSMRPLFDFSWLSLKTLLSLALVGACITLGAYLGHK

SMILES | Ki [1] | EC50 [2] | Ki [3]
CC1(C)CCC(CN2CCN(c3ccc(C(=O)NS(=O)(=O)c4ccc(NCCCN5CCS(=O)(=O)CC5)c([N+](=O)[O-])c4)c(Oc4ccc5[nH]ccc5c4)c3)CC2)=C(c2ccc(Cl)cc2)C1 [Example 266, 4-(4-{[2-(4-chlorophenyl)-4,4-dimethylcyclohex-1-en-1-yl]methyl}piperazin-1-yl)-N-[(4-{[3-(1,1-dioxidothiomorpholin-4-yl)propyl]amino}-3-nitrophenyl)sulfonyl]-2-(1H-indol-5-yloxy)benzamide] | 0.183 nM | 11.5 nM | > 660 nM
CC1(C)CCC(CN2CCN(c3ccc(C(=O)NS(=O)(=O)c4ccc(NCCN5CCCCC5=O)c([N+](=O)[O-])c4)c(Oc4ccc5[nH]ccc5c4)c3)CC2)=C(c2ccc(Cl)cc2)C1 [Example 267, 4-(4-{[2-(4-chlorophenyl)-4,4-dimethylcyclohex-1-en-1-yl]methyl}piperazin-1-yl)-2-(1H-indol-5-yloxy)-N-[(3-nitro-4-{[2-(2-oxopiperidin-1-yl)ethyl]amino}phenyl)sulfonyl]benzamide] | 0.454 nM | 56.4 nM | > 660 nM
CC1(C)CCC(CN2CCN(c3ccc(C(=O)NS(=O)(=O)c4ccc(NCCN5CCNC5=O)c([N+](=O)[O-])c4)c(Oc4ccc5[nH]ccc5c4)c3)CC2)=C(c2ccc(Cl)cc2)C1 [Example 268, 4-(4-{[2-(4-chlorophenyl)-4,4-dimethylcyclohex-1-en-1-yl]methyl}piperazin-1-yl)-2-(1H-indol-5-yloxy)-N-[(3-nitro-4-{[2-(2-oxoimidazolidin-1-yl)ethyl]amino}phenyl)sulfonyl]benzamide] | 0.092 nM | 68.2 nM | 145 nM
CC1(C)CCC(CN2CCN(c3ccc(C(=O)NS(=O)(=O)c4ccc(N5CCOCC5)c([N+](=O)[O-])c4)c(Oc4ccc5[nH]ccc5c4)c3)CC2)=C(c2ccc(Cl)cc2)C1 [Example 270, 4-(4-{[2-(4-chlorophenyl)-4,4-dimethylcyclohex-1-en-1-yl]methyl}piperazin-1-yl)-2-(1H-indol-5-yloxy)-N-[(4-morpholin-4-yl-3-nitrophenyl)sulfonyl]benzamide] | 3.31 nM | 429 nM | > 660 nM
COC1CCN(c2ccc(S(=O)(=O)NC(=O)c3ccc(N4CCN(CC5=C(c6ccc(Cl)cc6)CC(C)(C)CC5)CC4)cc3Oc3ccc4[nH]ccc4c3)cc2[N+](=O)[O-])CC1 [Example 271, 4-(4-{[2-(4-chlorophenyl)-4,4-dimethylcyclohex-1-en-1-yl]methyl}piperazin-1-yl)-2-(1H-indol-5-yloxy)-N-{[4-(4-methoxypiperidin-1-yl)-3-nitrophenyl]sulfonyl}benzamide] | 6.16 nM | > 500 nM | > 660 nM
O=C(NS(=O)(=O)c1ccc(NCC2CCOCC2)c([N+](=O)[O-])c1)c1ccc(N2CCN(CC3=C(c4ccc(Cl)cc4)CCC(N4CCCC4)C3)CC2)cc1Oc1ccc2[nH]ccc2c1 (stereo not drawn) [Example 272, 4-(4-{[2-(4-chlorophenyl)-5-pyrrolidin-1-ylcyclohex-1-en-1-yl]methyl}piperazin-1-yl)-2-(1H-indol-5-yloxy)-N-({3-nitro-4-[(tetrahydro-2H-pyran-4-ylmethyl)amino]phenyl}sulfonyl)benzamide] | 0.011 nM | 194 nM | > 660 nM
CC1(C)CCC(CN2CCN(c3ccc(C(=O)NS(=O)(=O)c4ccc(NCCN5CCNC(=O)C5)c([N+](=O)[O-])c4)c(Oc4ccc5[nH]ccc5c4)c3)CC2)=C(c2ccc(Cl)cc2)C1 [Example 273, 4-(4-{[2-(4-chlorophenyl)-4,4-dimethylcyclohex-1-en-1-yl]methyl}piperazin-1-yl)-2-(1H-indol-5-yloxy)-N-[(3-nitro-4-{[2-(3-oxopiperazin-1-yl)ethyl]amino}phenyl)sulfonyl]benzamide] | 0.076 nM | 70 nM | 181 nM
